According to article PMC11758220, “Identification of a Privileged Scaffold for Inhibition of Sterol Transport Proteins through the Synthesis and Ring Distortion of Diverse, Pseudo-Natural Products” (ACS Central Science, 2025):

Legend:
[1] = target: T1, STARD3 (Homo sapiens, UniProt Q14849); experiment: Differential scanning fluorimetry (DSF), STARD3; type: binding; conditions: for ΔTm at 10 µM / STARD3 (DSF) ΔTm: single dose, Dose = 10 µM; for Kd: apparent Kd, mean of three experiments run in technical duplicates, read-out: STARD3 Kd,app (DSF); for STARD3 (DSF) ΔTmmax: maximal thermal shift
T1 construct: STARD3(216-444); made in house; host or cells: E. coli BL21(DE3)
T1 sequence (Q14849 216-444): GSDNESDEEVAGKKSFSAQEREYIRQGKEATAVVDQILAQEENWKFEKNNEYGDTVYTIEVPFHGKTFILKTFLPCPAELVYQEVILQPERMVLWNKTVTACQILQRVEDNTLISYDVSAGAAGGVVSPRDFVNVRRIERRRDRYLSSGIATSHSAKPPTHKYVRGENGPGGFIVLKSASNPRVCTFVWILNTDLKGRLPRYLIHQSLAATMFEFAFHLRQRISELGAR
Excerpt: (§1) Protein expression constructs
(§2) Human ASTER domains of Aster-A(359-547), -B(364-552) and -C(318-504) were subcloned into a pGEX-6p-2rbs vector, thus introducing the cloning artifact ‘GPLGS’.3 The pGEX-6P-1-GST-OSBP(377- […]
(§3) a gift from James H. Hurley (University of California).4 The pHIS_2His6_Thrombin_STARD4(2-205;C75S) plasmid was a gift from Young Jun Im (Chonnam National University).5 STARD5A was a gift from Nicola Burgess-Brown (Addgene plasmid #42392; http://n2t.net/addgene:42392; […]
(§4) Protein expression and purification […]
(§5) vectors including an N-terminal PreScission-cleavable glutathione S-transferase (GST)-tag were expressed in Escherichia coli (E. coli) OverExpress C41 in Terrific Broth (TB) medium for 16 h at 18 °C after the induction with 0.1 mM isopropyl β-D-1-thiogalactopyranoside (IPTG). Cells were harvested at 3500 × g for 15 minutes and lysed by sonication in buffer containing 50 mM HEPES pH 7.5, 300 mM NaCl, 10 %v/v glycerol, 5 mM dithiothreitol (DTT), 0.1 %v/v Triton X-100 and protease inhibitor mix HP plus (Serva). The lysate was purified by affinity chromatography on a GSTrap FF column (Cytiva) using an ÄKTA Start (Cytiva) in buffer containing 50 mM HEPES pH 7.5, 300 mM NaCl, 10 %v/v glycerol, 5 mM DTT and 0.01 %v/v Triton X-100. The GST-tag was cleaved overnight on the column at 4 °C. The Aster sterol binding domains were further purified by size-exclusion chromatography (SEC) on a HiLoad 16/600 Superdex 75 pg (Cytiva) in buffer containing 20 mM HEPES pH 7.5, 300 mM NaCl, 10 %v/v […]
(§6) STARD5(6-213) harboring an N-terminal His6-Tag were expressed in E. coli BL21(DE3) in Luria-Bertani Broth (LB) medium for approximately 16 h at 18 °C after induction with 0.15 mM IPTG. Cells were harvested at 3500 × g for 15 minutes and lysed by sonication in buffer containing 50 mM HEPES pH 7.5, 150 mM NaCl, 5 %v/v glycerol, 5 mM DTT, 0.1 %v/v Triton X -100 and ethylenediaminetetraacetic acid (EDTA)-free protease inhibitor cocktail (Sigma-Aldrich). The cleared lysate was purified by affinity chromatography on a Ni-NTA Superflow Cartridge (Qiagen) using an ÄKTA Start (Cytiva) in buffer containing 50 mM HEPES pH 7.5, 150 mM NaCl, 5 %v/v glycerol, 5 mM DTT. START domains were eluted by using elution buffer containing 50 mM HEPES pH 7.5, 150 mM NaCl, 5 %v/v glycerol, 5 mM DTT and 500 mM imidazole. Proteins were further purified by SEC on a HiLoad 16/600 Superdex 75 pg (Cytiva) in buffer containing 20 mM HEPES pH 7.5, 150 mM NaCl, 5 %v/v glycerol and 2 mM DTT.
(§7) The ORP domain of human OSBP(377-807) in the pGEX-6p-1 vector with an N-terminal PreScission-cleavable GST-tag was expressed in E. coli OverExpress C41 in LB medium for 16 h at 18 °C after induction with 0.1 mM IPTG. Cells were harvested at 3500 × g for 15 minutes and lysed by sonication in buffer containing 20 mM HEPES pH 7.5, 300 mM NaCl, 10 %v/v glycerol, 5 mM DTT, 0.1 %v/v Triton X-100 and EDTA-free protease inhibitor cocktail (Sigma-Aldrich). The cleared lysate was purified by affinity chromatography on a GSTrap HF column (Cytiva) using an ÄKTA Start (Cytiva) in buffer containing 20 mM HEPES pH 7.5, 300 mM NaCl, 10 %v/v glycerol, 5 mM DTT. OSBP(377 -807) was eluted by using elution buffer containing 20 mM HEPES pH 7.5, 300 mM NaCl, 10 %v/v glycerol, 5 mM DTT and 10 mM reduced glutathione. Proteins were further purified by SEC on a HiLoad 16/600 Superdex 75 pg (Cytiva) using an ÄKTA Explorer (Cytiva) in buffer containing 20 mM HEPES pH 7.5, 150 mM NaCl, 10 %v/v glycerol and 2 mM DTT.
(§8) The ORP domains of human ORP1(534-950) in pET24b(+) and ORP2(49-480) in the pET24b(+) vector including an N-terminal His6-Tag were expressed in E. coli BL21(DE3) in TB medium for approximately 16 h at 18 °C after induction with 0.1 mM IPTG. Cells were collected at 3500 × g for 15 minutes and lysed by sonification in buffer containing 10 mM Tris-HCl pH 8, 300 mM NaCl, 5 % glycerol, 2 mM DTT, 0.1 % Triton X-100 and EDTA-free protease inhibitor cocktail (Sigma-Aldrich). The cleared […]

[2] = target: T2, ORP2 (Homo sapiens, UniProt Q9H1P3); experiment: Fluorescence polarisation (FP) competition with NBD-cholesterol, ORP2; type: binding; conditions: for IC50: mean of three experiments run in technical duplicates; for inhibition at 10 µM / ORP2 (FP) inhibition: single dose, Dose = 10 µM
T2 construct: ORP2(49-480); host or cells: E. coli BL21(DE3)
T2 sequence (Q9H1P3 49-480): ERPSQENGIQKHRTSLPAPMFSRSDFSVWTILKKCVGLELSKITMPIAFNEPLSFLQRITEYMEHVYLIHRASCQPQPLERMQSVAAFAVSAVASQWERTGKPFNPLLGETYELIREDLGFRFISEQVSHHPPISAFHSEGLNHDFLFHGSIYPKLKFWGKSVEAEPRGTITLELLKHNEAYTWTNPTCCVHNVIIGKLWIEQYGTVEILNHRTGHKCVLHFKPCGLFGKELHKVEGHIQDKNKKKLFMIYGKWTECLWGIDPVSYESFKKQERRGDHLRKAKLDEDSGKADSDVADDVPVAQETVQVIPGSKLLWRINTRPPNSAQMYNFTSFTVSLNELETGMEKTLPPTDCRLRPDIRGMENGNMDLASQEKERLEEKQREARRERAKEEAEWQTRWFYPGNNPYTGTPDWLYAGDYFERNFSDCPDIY
Excerpt: as §1, §2, §3, §4, §5, §6, §7, §8

| SMILES | ΔTm at 10 µM [1] | IC50 [2] | inhibition at 10 µM [2] | Kd [1] | STARD3 (DSF) ΔTmmax [1] | ORP2 (FP) inhibition [2] | STARD3 (DSF) ΔTm [1] |
| --- | --- | --- | --- | --- | --- | --- | --- |
| C[C@]12CC[C@@H]3C[C@H]1CC[C@@]21C(=Nc2ccc(Br)cc21)O3 (racemic) [Compound 15b] | 0.3 °C | 7.14 µM | 29% | – | – | – | – |
| CC12CCC3CC1CCC21C(=Nc2ccc(N4CCOCC4)cc21)O3 (racemic) [Compound 19a] | 1.2 °C | > 80 µM | 27% | – | – | – | – |
| CC12CCC3CC1CCC21C(=Nc2ccc(Br)cc21)O3 (single isomer, unassigned; (+)) [(+)-15b] | 0.244 °C | > 80 µM | 35% | > 100 µM | 0.44 °C | – | – |
| CC12CCC3CC1CCC21C(=Nc2ccc(N4CCOCC4)cc21)O3 (single isomer, unassigned; (+)) [(+)-19a] | 1.5 °C | > 80 µM | – | > 100 µM | 3.6 °C | 7% | – |
| CC12CCC3CC1CCC21C(=Nc2ccc(N4CCOCC4)cc21)O3 (single isomer, unassigned; (-)) [(−)-19a] | – | > 50 µM | – | > 100 µM | 0.9 °C | 32% | 1.0 °C |
| C[C@@]12CC[C@H]3C[C@@H]1CC[C@]21C(=Nc2ccc(Br)cc21)O3 [(−)-15b] | 0.5 °C | 5.85 µM | 60% | > 100 µM | 0.7 °C | – | – |
| CC(C)Oc1ccc(C(=O)Nc2nc3c(s2)CN(C(=O)OC(C)(C)C)CC3)cc1 [Autogramin-2, reference compound] | – | 6.83 µM | – | > 30 µM | – | 18% | 0.027 °C |
| Cc1c2c(nc3ccccc13)[C@@]1(C)CC[C@@H](O)C[C@H]1CC2 [Compound 2a] | -0.0816 °C | – | 43.5% | – | – | – | – |
| C[C@]12CC[C@@H](O)C[C@H]1CCc1c2nc2ccccc2c1-c1ccccc1 [Compound 2b] | – | – | – | – | – | 14% | 0.0566 °C |
| Cc1c2c(nc3cc(Br)ccc13)[C@@]1(C)CC[C@@H](O)C[C@H]1CC2 [Compound 2c] | – | – | – | – | – | 53% | -0.168 °C |
| C[C@]12CC[C@@H](O)C[C@H]1CCc1c2nc2ccccc2c1-c1ccc(F)cc1 [Compound 2d] | 0.0456 °C | – | 14% | – | – | – | – |
| C[C@]12CC[C@@H](O)C[C@H]1CCc1c2nc2ccc(Cl)cc2c1-c1ccccc1 [Compound 2e] | – | – | – | – | – | 15% | -0.1 °C |
| C[C@]12CC[C@@H](O)C[C@H]1CCc1c2[nH]c2ncccc12 [Compound 3] | -0.0743 °C | – | 2% | – | – | – | – |
| C[C@]12CC[C@@H](O)C[C@H]1CCC[C@]21Nc2ccccc2-n2cccc21 [Compound 4] | 0.5 °C | – | 12% | – | – | 25% | 0.9 °C |
